From paper PMC9814838, “The orphan nuclear receptor Nurr1 is responsive to non-steroidal anti-inflammatory drugs” (Communications Chemistry, 2020)
Like-named read-outs stand apart in the source and are kept apart here.

Assays:
Assay type in all cases: cell-based
[1] = target: T1, Nurr1 (Homo sapiens, UniProt P43354); assay: Gal4-Nurr1 hybrid reporter gene assay in HEK293T cells; conditions: for Nurr1 activity 10μM (mean fold activation) / Nurr1 activity 30μM (mean fold activation): primary screen, n ≥ 2, ^# not significant vs VP16 control
T1 construct: Nurr1 (uniprot entry: hNURR1–P43354, residues 360–598); expressed in transfected cells; host or cells: HEK293T

[2] = target: T2, NOR1 (Homo sapiens, UniProt Q92570); assay: Gal4-NOR1 hybrid reporter gene assay in HEK293T cells; conditions: for Nor1 activity 10μM (mean fold activation) / Nor1 activity 30μM (mean fold activation): primary screen, n ≥ 2, ^# not significant vs VP16 control; for NOR1 min./max. activation: compared to 0.1% DMSO; for NOR1 activity in words or dash: dash = not reported as active versus VP16 control (p < 0.05)
T2 construct: NOR1 (isoform alpha; uniprot entry: hNOR1–Q92570-1, residues 393–626); expressed in transfected cells; host or cells: HEK293T
T2 sequence (Q92570 393-626): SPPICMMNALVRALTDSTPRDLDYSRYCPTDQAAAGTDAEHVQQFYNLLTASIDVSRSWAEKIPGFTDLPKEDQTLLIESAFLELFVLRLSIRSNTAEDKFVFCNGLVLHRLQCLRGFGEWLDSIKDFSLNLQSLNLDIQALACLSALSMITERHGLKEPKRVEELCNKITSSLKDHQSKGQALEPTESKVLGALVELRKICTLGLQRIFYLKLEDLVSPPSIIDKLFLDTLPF

[3] = target: T3, Nur77 (Homo sapiens, UniProt P22736); assay: Gal4-Nur77 hybrid reporter gene assay in HEK293T cells; conditions: for Nur77 activity 10μM (mean fold activation) / Nur77 activity 30μM (mean fold activation): primary screen, n ≥ 2, ^# not significant vs VP16 control; for IC50: HEK293T, n≥3; for IC50 / Nur77 min./max. activation: mean ± SD; for Nur77 min./max. activation: compared to 0.1% DMSO; for Nur77 activity in words or dash: dash = not reported as active versus VP16 control (p < 0.05)
T3 construct: Nur77 (uniprot entry: hNUR77–P22736, residues 358–598); expressed in transfected cells; host or cells: HEK293T

[4] = HEK293T, mean ± SD, n≥3, read-out: NOR1 IC50

T1 sequence (P43354 360-598): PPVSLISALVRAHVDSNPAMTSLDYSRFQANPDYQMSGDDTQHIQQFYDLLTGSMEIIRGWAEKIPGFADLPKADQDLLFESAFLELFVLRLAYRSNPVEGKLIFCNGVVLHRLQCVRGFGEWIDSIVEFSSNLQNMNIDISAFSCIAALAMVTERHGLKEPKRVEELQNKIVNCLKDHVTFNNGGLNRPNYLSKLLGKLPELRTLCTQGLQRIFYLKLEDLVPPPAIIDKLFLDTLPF
T3 sequence (P22736 358-598): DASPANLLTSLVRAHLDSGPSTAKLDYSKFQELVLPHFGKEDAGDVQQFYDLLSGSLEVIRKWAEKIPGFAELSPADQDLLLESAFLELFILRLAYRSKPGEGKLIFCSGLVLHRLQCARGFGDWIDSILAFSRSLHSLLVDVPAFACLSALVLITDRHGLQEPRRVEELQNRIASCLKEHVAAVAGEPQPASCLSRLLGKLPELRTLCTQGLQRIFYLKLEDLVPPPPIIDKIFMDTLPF

Structure (SMILES)	Nurr1 activity 10μM (mean fold activation) [1]	Nurr1 activity 30μM (mean fold activation) [1]	Nor1 activity 10μM (mean fold activation) [2]	Nor1 activity 30μM (mean fold activation) [2]	Nur77 activity 10μM (mean fold activation) [3]	Nur77 activity 30μM (mean fold activation) [3]	Nurr1 activity in words or dash ([1]; dash = not reported as active versus VP16 control (p < 0.05))	IC50 [2, 4]	NOR1 min./max. activation ([2]; mean ± SD)	NOR1 activity in words or dash [2]	IC50 [3]	Nur77 min./max. activation [3]	Nur77 activity in words or dash [3]	IC50 [2]
Cc1ccc(-c2cc(C(F)(F)F)nn2-c2ccc(S(N)(=O)=O)cc2)cc1 [celecoxib]	0.93 fold	0.97 fold	0.92 fold	toxic	0.75 fold	toxic								
O=C(O)c1ccccc1Nc1cccc(C(F)(F)F)c1 [flufenamic acid]	1.14 fold	toxic	1.36 fold	toxic	0.99 fold	toxic								
CS(=O)(=O)Nc1ccc([N+](=O)[O-])cc1Oc1ccccc1 [nimesulid]	1.00 fold	0.89 fold	0.91 fold	0.84 fold	0.90 fold	toxic								
CC(C(=O)O)c1ccc(-c2ccccc2)c(F)c1 (stereo not shown) [flurbiprofen]	1.25 fold	1.05 fold	0.98 fold	0.91 fold	0.93 fold	0.96 fold								
Cc1cc(NC(=O)C2=C(O)c3ccccc3S(=O)(=O)N2C)no1 [isoxicam]	0.98 fold	0.90 fold	1.02 fold	0.87 fold	0.96 fold	0.80 fold								
O=C(OCCOCCO)c1ccccc1Nc1cccc(C(F)(F)F)c1 [etofenamate]	0.97 fold	toxic	1.07 fold	toxic	0.84 fold	toxic								
CS(=O)(=O)c1ccc(C2=C(c3ccccc3)C(=O)OC2)cc1 [rofecoxib]	1.02 fold	0.92 fold	0.95 fold	1.01 fold	0.93 fold	0.91 fold								
CC(=O)Oc1ccccc1C(=O)O [acetylsalicylic acid]	1.02 fold	0.92 fold	1.03 fold	0.93 fold	0.98 fold	0.97 fold								
CC(C(=O)O)c1cccc(Oc2ccccc2)c1 (stereo not shown) [fenoprofen]	1.00 fold	0.91 fold	1.01 fold	0.81 fold	0.99 fold	0.86 fold								
CN1C(C(=O)Nc2ccccn2)=C(O)c2ccccc2S1(=O)=O [piroxicam]	0.98 fold	0.98 fold	1.05 fold	1.01 fold	1.03 fold	0.92 fold								
CN1C(C(=O)Nc2ccccn2)=C(O)c2sc(Cl)cc2S1(=O)=O [lornoxicam]	0.93 fold	0.86 fold	0.92 fold	0.73 fold	0.86 fold	0.64 fold	without affecting Nurr1 activity	24 ± 3 µM	0.62 ± 0.02	inverse agonism	9.4 ± 6.3 µM	0.63 ± 0.09	inverse agonism	
CCCCC1C(=O)N(c2ccccc2)N(c2ccccc2)C1=O [phenylbutazone]	0.94 fold	1.04 fold	0.94 fold	1.02 fold	0.83 fold	0.81 fold								
Cc1cccc(Nc2ccccc2C(=O)O)c1C [mefenamic acid]	0.90 fold	0.86 fold	0.95 fold	toxic	0.80 fold	toxic								
Cc1c(Nc2ncccc2C(=O)O)cccc1C(F)(F)F [flunixin]	toxic	toxic	toxic	toxic	toxic	toxic								
O=C(O)c1ccccc1O [salicylic acid]	1.08 fold	1.02 fold	1.01 fold	0.99 fold	1.06 fold	1.02 fold								
COc1ccc2c(c1)c(CC(=O)O)c(C)n2C(=O)c1ccc(Cl)cc1 [indometacin]	0.96 fold	0.91 fold	0.87 fold	toxic	0.83 fold	toxic								
Cc1c(Cl)cccc1Nc1ccccc1C(=O)O [tolfenamic acid]	1.18 fold	toxic	toxic	toxic	toxic	toxic								
Cc1cnc(NC(=O)C2=C(O)c3ccccc3S(=O)(=O)N2C)s1 [meloxicam]									0.1 ± 0.1			0.23 ± 0.02		84 ± 17 µM

The next lines start with results.

Nurr1 activity 10μM (mean fold activation) [1]	Nurr1 activity 30μM (mean fold activation) [1]	Nor1 activity 10μM (mean fold activation) [2]	Nor1 activity 30μM (mean fold activation) [2]	Nur77 activity 10μM (mean fold activation) [3]	Nur77 activity 30μM (mean fold activation) [3]	Nurr1 activity in words or dash ([1]; dash = not reported as active versus VP16 control (p < 0.05))	IC50 [2, 4]	NOR1 min./max. activation ([2]; mean ± SD)	NOR1 activity in words or dash [2]	IC50 [3]	Nur77 min./max. activation [3]	Nur77 activity in words or dash [3]	Structure (SMILES)	IC50 [2]
1.14 fold	1.15 fold	1.09 fold	1.09 fold	0.99 fold	1.07 fold								COc1ccc2cc([C@H](C)C(=O)O)ccc2c1 [naproxen]	
1.02 fold	0.92 fold	1.09 fold	1.23 fold	0.98 fold	0.97 fold								NC(=O)Cc1cccc(C(=O)c2ccccc2)c1N [nepafenac]	
0.94 fold	0.94 fold	1.00 fold	0.78 fold	0.98 fold	0.69 fold		33 ± 5 µM	0.32 ± 0.10	inverse agonism	30 ± 1 µM	0.38 ± 0.02	inverse agonism	COc1ccc(-c2noc(CC(=O)O)c2-c2ccc(OC)cc2)cc1 [mofezolac]	
1.44 fold	1.46 fold	1.69 fold	1.74 fold	1.57 fold	1.44 fold								COc1ccc2cc(CCC(C)=O)ccc2c1 [nabumeton]	
1.10 fold	1.19 fold	1.17 fold	0.99 fold	1.08 fold	0.95 fold								CC(C(=O)O)c1ccc2c(c1)[nH]c1ccc(Cl)cc12 (stereo not shown) [carprofen]	
1.08 fold	1.13 fold	1.08 fold	1.00 fold	1.10 fold	0.97 fold								Cc1ccc(C(=O)c2ccc(CC(=O)O)n2C)cc1 [tolmetin]	
